According to PMC7589190, “Targeted Amino Acid Substitutions in a Trichoderma Peptaibol Confer Activity against Fungal Plant Pathogens and Protect Host Tissues from Botrytis cinerea Infection” (International Journal of Molecular Sciences, 2020):
Entries after “also recorded” stand apart in the source; their conditions may differ. Marks after values point to notes of the source that are not given here. Square brackets hold non-standard residues; d marks the D form. Peptide text beside a SMILES is read from it. * marks the point of attachment. Leu(ol) = CC(C)C[C@H](N)CO; Octanoyl = CCCCCCCC(=O)*; Api = NC1(C(=O)O)CCNCC1; Aib = CC(C)(N)C(=O)O

What was measured:
trypsin = settings: HPLC
[1] = system: pronase E (a mixture of different proteases); settings: after 27 h, HPLC
B. cinerea [2] = assay: Resazurin vital dye growth assay in microtiter wells; format: cell-based, Botrytis cinerea; design: key to Antifungal Activity: –, no activity; settings: for Growth Delay / fungal growth / activity against B. cinerea (in words): peptide 15 µM; for Growth Delay: PDB pH 6.9, 5 × 10^5 spores mL^−1, resazurin, 25 °C dark, vs untreated control, repeated three times; for fungal growth / activity against B. cinerea (in words): resazurin dye; for Antifungal Activity: summary of performance of Lys-containing analogs against B. cinerea
P. expansum = settings: for growth inhibition at maximum concentration tested: 15 µM, 96 h, absorbance at 450 nm
B. cinerea [3] = assay: Protection of common bean leaves from B. cinerea infection; settings: for reduction of infected (symptomatic) leaf area: common bean leaves (Phaseolus vulgaris, Borlotto var. Teggia), peptide sprayed at 50 µM
Description: Leaves of common bean (Phaseolus vulgaris, Borlotto var. Teggia) were detached from 12 days-old plants grown in organic soil into a climatic chamber with a 14 h photoperiod and 22/20 °C day/night temperature.
Treatments were performed by spraying the peptides at different concentrations on leaves and berries. Water spraying was performed as a negative control.
Leaves were arranged on moist towels in plastic trays and inoculated with a suspension of 2.5 × 10^6 mL^−1 conidia of B. cinerea in potato dextrose broth (PDB). Ten microliters of the conidia suspension were dropped on two or three points apart on the leaf surface of common bean and grapevine leaves, respectively.
Inoculated leaves and berries were incubated in the dark at 25 °C in plastic bags to maintain humidity.
Seven days post-inoculation (dpi), the size of the symptomatic leaf area was measured from pictures taken with a Panasonic Lumix DMC-FZ2000 by using the graphic software “Fiji ImageJ” (GNU General Public License).
The experiment was repeated three times with leaves and four times with berries. Each treatment was performed with seven leaves of common bean and three leaves of the grapevine.
Data obtained in the infection experiments performed on common bean leaves were statistically analyzed by applying the one-way Anova Bonferroni–Holm test. The statistical analysis was performed within the groups of peptides tested at the same time compared to their respective control.

B. cinerea [4] = assay: Protection of grape berries from B. cinerea infection; format: in vivo, Botrytis cinerea; settings: 50 µM, vs control
F. graminearum = settings: for MIC: 96 h, pH 6.9
B. sorokiniana = format: cell-based, Bipolaris sorokiniana; settings: for growth inhibition at maximum concentration tested: 15 µM, 96 h, absorbance at 450 nm
B. cinerea conidia = assay: Cell viability assay of conidia (Evan's blue staining, plating on PDA); format: cell-based, Botrytis cinerea; settings: 15 µM
B. cinerea [5] = assay: Protection of grapevine leaves from B. cinerea infection; format: in vivo, Botrytis cinerea; settings: grapevine leaves cv. Glera, 50 µM, 7 dpi, vs water control, three experiments
B. cinerea [6] = format: cell-based, Botrytis cinerea; settings: 15 µM, 96 h, absorbance at 450 nm
[7] = Water solubility of the peptides; format: physicochemical; settings: native peptide; solubilized in ethanol before dilution in water
Description: Peptides were produced by manual and semiautomatic solid-phase peptide synthesis (SPPS). To reduce the impact on the environment of the synthesis, a limited excess of reagents was employed in the coupling steps (1.5–2.5 equivalents of coupling reagents instead of the standard 4 equivalents-1 equivalent corresponds to the loading of the resin). Moreover, all steps were performed in the ecofriendly solvent mixture of dimethylsulfoxide/ethyl acetate 1:9 instead of the hazardous solvent N,N-dimethylformamide (DMF). We exploited ethyl cyano(hydroxyimino) acetate (Oxyma pure) and diisopropylcarbodiimide (DIC), classified by the ACS Green Chemistry Institute® Pharmaceutical Roundtable as two of the greenest coupling reagents, instead of the commonly employed O-benzotriazol-1-yl-1,1,3,3 tetramethyluronium hexafluorophosphate (HBTU)/1-hydroxy-1,2,3-benzotriazole (HOBt) mixture or HATU [2-(1H-7-aza-1,2,3-benzotriazol-1-yl)-1,1,3,3-tetramethyl uronium hexafluorophosphate]. The strategy reduced the environmental impact and synthetic costs by more than 70% compared to our previous methods based on standard procedure. By adopting a manual/semiautomatic synthetic approach, the amount of solvents and reagents were reduced relative to those used in automated synthesis. The steric hindrance of Aib makes it poorly reactive, to the point that standard procedures employ repeated couplings. […]

[8] = monitored every 12 h for seven days

Row | Compound | Growth Delay (B. cinerea [2]; [8]) [h] | fungal growth / activity against B. cinerea (in words) (B. cinerea [2]; [8]) | Antifungal Activity (B. cinerea [2]) | reduction of infected (symptomatic) leaf area (B. cinerea [3]; 7 dpi, vs water control) | Growth Delay (B. cinerea [2]; monitored for seven days) [h] | also measured
1 | CCCCCCCC(=O)NC(C)(C)C(=O)N[C@@H](CCCCN)C(=O)N[C@@H](CC(C)C)C(=O)NC(C)(C)C(=O)N[C@@H](CCCCN)C(=O)NCC(=O)N[C@@H](CC(C)C)C(=O)NC(C)(C)C(=O)NCC(=O)N[C@H](C(=O)N[C@H](CO)CC(C)C)[C@@H](C)CC [Peptide 1] (Octanoyl-[Aib]KL[Aib]KGL[Aib]GI[Leu(ol)]) | 12 to 24 | delayed growth | + ^a |  |  | time to digestion by trypsin (trypsin): less than 15 min; stability against pronase [1]: stable
2 | CCCCCCCC(=O)NC(C)(C)C(=O)N[C@@H](CCCCN)C(=O)N[C@@H](CC(C)C)C(=O)NC(C)(C)C(=O)NCC(=O)NCC(=O)N[C@@H](CC(C)C)C(=O)NC(C)(C)C(=O)NCC(=O)N[C@H](C(=O)N[C@H](CO)CC(C)C)[C@@H](C)CC [Peptide 2] (Octanoyl-[Aib]KL[Aib]GGL[Aib]GI[Leu(ol)]) | 36 to 48 | delayed growth | ++ |  |  | 
3 | CCCCCCCC(=O)NC(C)(C)C(=O)NCC(=O)N[C@@H](CC(C)C)C(=O)NC(C)(C)C(=O)N[C@@H](CCCCN)C(=O)NCC(=O)N[C@@H](CC(C)C)C(=O)NC(C)(C)C(=O)NCC(=O)N[C@H](C(=O)N[C@H](CO)CC(C)C)[C@@H](C)CC [Peptide 3] | 0 | fungal growth was observed after 12 h | – |  |  | 
4 | CCCCCCCC(=O)NC(C)(C)C(=O)NCC(=O)N[C@@H](CC(C)C)C(=O)NC(C)(C)C(=O)N[C@@H](CCCCN)C(=O)N[C@@H](CCCCN)C(=O)N[C@@H](CC(C)C)C(=O)NC(C)(C)C(=O)NCC(=O)N[C@H](C(=O)N[C@H](CO)CC(C)C)[C@@H](C)CC [Peptide 4] |  | No growth occurred | ++++ | > 95% | >170 | growth inhibition at maximum concentration tested (P. expansum): completely inhibited the growth; disease symptoms (in words) (B. cinerea [3]; common bean leaves, 15 µM): significant decrease in disease symptoms; disease symptoms (in words) (B. cinerea [3]; common bean leaves, 50 µM): almost complete annulment; reduction of lesion (symptomatic leaf) area (B. cinerea [3]; common bean leaves, peptide sprayed at 15 µM, 7 dpi, vs water control): about 75%; increase in the number of asymptomatic berries (B. cinerea [4]): threefold increase; growth inhibition at maximum concentration tested (F. graminearum): completely inhibited the growth; MIC (F. graminearum): 5 to 15 µM; growth inhibition at maximum concentration tested (B. sorokiniana): strong growth inhibition effect; germination of conidia (microscopy, Evans blue) (B. cinerea conidia; 24 h incubation in PDB, 5 × 10^5 mL^−1 conidia): conidia did not germinate; fungal growth after rinsing and plating treated conidia on PDA (fungicidal activity) (B. cinerea conidia; treated 24 h, rinsed with distilled water, plated on PDA): No fungal growth was observed; reduction of infected leaf area (B. cinerea [5]): about 70%; growth inhibition at maximum concentration tested (B. cinerea [6]): completely inhibited the growth
5 | CCCCCCCC(=O)NC(C)(C)C(=O)NCC(=O)N[C@@H](CC(C)C)C(=O)NC(C)(C)C(=O)N[C@@H](CCCCN)C(=O)N[C@@H](CCCCN)C(=O)N[C@@H](CC(C)C)C(N)=O [Peptide 4c1] (Octanoyl-[Aib]GL[Aib]KKL-NH2) |  | inhibiting mycelial growth |  | ~55% | >170 | 
6 | CCCCCCCC(=O)NC(C)(C)C(=O)N[C@@H](CCCCN)C(=O)N[C@@H](CCCCN)C(=O)N[C@@H](CC(C)C)C(=O)NC(C)(C)C(=O)NCC(=O)N[C@H](C(=O)N[C@@H](CC(C)C)C(N)=O)[C@@H](C)CC [Peptide 4c2] (Octanoyl-[Aib]KKL[Aib]GIL-NH2) |  | inhibiting mycelial growth |  | about 70% | >170 | 
7 | CCCCCCCC(=O)NC(C)(C)C(=O)N[C@@H](CCCCN)C(=O)N[C@@H](CCCCN)C(=O)N[C@@H](CC(C)C)C(=O)NC(C)(C)C(=O)NCC(=O)N[C@H](C(=O)N[C@H](CO)CC(C)C)[C@@H](C)CC [Peptide 4c] (Octanoyl-[Aib]KKL[Aib]GI[Leu(ol)]) |  | inhibiting mycelial growth |  | ~55% | >170 | 
8 | CCCCCCCC(=O)NC(C)(C)C(=O)NCC(=O)N[C@@H](CC(C)C)C(=O)NC(C)(C)C(=O)NCC(=O)N[C@@H](CCCCN)C(=O)N[C@@H](CC(C)C)C(=O)NC(C)(C)C(=O)NCC(=O)N[C@H](C(=O)N[C@H](CO)CC(C)C)[C@@H](C)CC [Peptide 5] |  | No growth occurred | ++++ | > 95% | >170 | growth inhibition at maximum concentration tested (P. expansum): completely inhibited the growth; disease symptoms (in words) (B. cinerea [3]; common bean leaves, 15 µM): significant decrease in disease symptoms; disease symptoms (in words) (B. cinerea [3]; common bean leaves, 50 µM): almost complete annulment; growth inhibition at maximum concentration tested (F. graminearum): completely inhibited the growth; MIC (F. graminearum): 5 to 15 µM; growth inhibition at maximum concentration tested (B. sorokiniana): strong growth inhibition effect; growth inhibition at maximum concentration tested (B. cinerea [6]): completely inhibited the growth
9 | CCCCCCCC(=O)NC(C)(C)C(=O)NCC(=O)N[C@@H](CC(C)C)C(=O)NC(C)(C)C(=O)N[C@@H](CCCCN)C(=O)NC(C)(C)C(=O)N[C@@H](CC(C)C)C(=O)NC(C)(C)C(=O)NCC(=O)N[C@H](C(=O)N[C@H](CO)CC(C)C)[C@@H](C)CC [Peptide 6] | 12 to 24 | delayed growth | + |  |  | 
10 | CCCCCCCC(=O)NC(C)(C)C(=O)N[C@@H](CCCCN)C(=O)N[C@@H](CC(C)C)C(=O)NC(C)(C)C(=O)NCC(=O)N[C@@H](CCCCN)C(=O)N[C@@H](CC(C)C)C(=O)NC(C)(C)C(=O)NCC(=O)N[C@H](C(=O)N[C@H](CO)CC(C)C)[C@@H](C)CC [Peptide 7] | 72 to 84 | delayed growth | ++ |  |  | 
11 | CCCCCCCC(=O)NC(C)(C)C(=O)NCC(=O)N[C@@H](CC(C)C)C(=O)NC(C)(C)C(=O)NCC(=O)NCC(=O)N[C@@H](CC(C)C)C(=O)NC1(C(=O)NCC(=O)N[C@H](C(=O)N[C@H](CO)CC(C)C)[C@@H](C)CC)CCNCC1 [Peptide 8, [Api^8]-trichogin] (Octanoyl-[Aib]GL[Aib]GGL[Api]GI[Leu(ol)]) |  | No growth occurred |  |  | >170 | growth inhibition at maximum concentration tested (P. expansum): completely inhibited the growth; growth inhibition at maximum concentration tested (F. graminearum): completely inhibited the growth; MIC (F. graminearum): 5 to 15 µM; growth inhibition at maximum concentration tested (B. sorokiniana): strong growth inhibition effect; growth inhibition at maximum concentration tested (B. cinerea [6]): completely inhibited the growth
12 | nOct-Aib-Gly^2-Leu-Aib-Gly^5-Gly-Leu-Aib^8-Gly-Ile-Lol [trichogin, trichogin GA IV, short-length, natural 11-residue lipopeptaibol produced by T. longibrachiatum, reference compound] | 0 | fungal growth was observed after 12 h; also recorded: completely inactive |  |  |  | water solubility (in words) [7]: poor water solubility; activity against P. expansum (in words) (P. expansum): inactive; activity against F. graminearum (in words) (F. graminearum): inactive; activity against B. sorokiniana (in words) (B. sorokiniana): inactive
